Results reported in patent US5405843A, “Quinoline derivatives” (Mitsui Toatsu Chemicals, Incorporated, priority 1988, dated 1995).

Test system: Adriamycin resistant strain 2780 AD cells of human ovarian cancer A2780 cells
Assay: Potentiating effect on incorporation of 3H-vincristine into adriamycin-resistant cancer cells
Type: cell-based
Settings: 20 nM 3H-vincristine; for activity at 1 µg/mL / activity at 10 µg/mL: Homo sapiens, 2780AD, 2 h, control = 100, read-out: 3H-vincristine accumulation; for activity at 10 µg/mL: compound 10 μg/ml
Experimental: Potentiating Effect of the Compounds on Incorporation of Anticancer Drugs into Drug-resistant Cancer Cells
Adriamycin resistant strain 2780 AD cells of human ovarian cancer A2780 cells (A. M. Rogan et al., Science 224, 994-996, 1984) were suspended at a concentration of 1×10^6 /ml in RPMI-1640 medium supplemented with 5% fetal calf serum, and 1 ml of the cancer cell suspension was dispensed into each well of a multi-well culture plate (24 wells, […] in diameter) and then incubated at 37° C. in an atmosphere of 5% CO2. After 24 hours incubation, the medium in each well was replaced by 0.5 ml of RPMI-1640 medium supplemented containing 20 nM ^3 H-vincristine (1×10^4 dpm/pmol), 5% fetal calf serum and 10 mM Hepes buffer. Five microliters of a solution of the compound to be tested, which had been dissolved in DMSO and diluted with […] (at a concentration of 1.0 microgram/ml or 10.0 micrograms/ml), was added to each well and the incubation was continued at 37° C. in 5% CO2 for 2 hours. The resultant cells were washed in cold saline-phosphate buffer. In each well was added 0.5 ml of 0.2N NaOH, and the resulting cell suspension in each well was independently transferred into a vial and then heated in a water bath at 56° C. for 30-60 minutes to dissolve the cells. After adding 4 ml of acid aquazole 2, the amount of ^3 H-vincristine incorporated into the cells was determined by a fluid scintillation counter.

| Compound | activity at 1 µg/mL (compound 1 μg/ml) [%] | activity at 10 µg/mL [%] | 3H-vincristine accumulation (compound 1 μg/ml, 2 hours, control = 100, 120 min) [%] |
| --- | --- | --- | --- |
| COc1ccc(OCC(O)CN2CCN(C(c3ccccc3)c3ccccc3)CC2)c2cccnc12 (centres unmarked) [Example 25, 5-[3-(4-Diphenylmethylpiperazine-1-yl)-2-hydroxypropoxy]-8-methoxyquinoline] | 858 |  |  |
| Cc1cc(C)c2c(OCC(O)CN3CCC(=C(c4ccccc4)c4ccccc4)CC3)cccc2n1 (centres unmarked) [Example 67, 2,4-Dimethyl-5-[3-(4-diphenylmethylenepiperizine-1-yl)-2-hydroxypropoxy]quinoline] | 730 |  |  |
| Cc1ccc(OCC(O)CN2CCN(C(c3ccccc3)c3ccccc3)CC2)c2cccnc12 (centres unmarked) [Example 24, 5-[3-(4-Diphenylmethylpiperazine-1-yl)-2-hydroxypropoxy]-8-methylquinoline] | 146 | 931 |  |
| OC(COc1cccc2nc(Cl)ccc12)CN1CCC(C(O)(c2ccccc2)c2ccccc2)CC1 (centres unmarked) [Example 19, 5-[3-(4-(Diphenyl-hydroxymethyl)piperidine-1-yl)-2-hydroxypropoxy]-2-chloroquinoline] | 374 | 524 |  |
| OC(COc1nccc2ccccc12)CN1CCN(C(c2ccccc2)c2ccccc2)CC1 (centres unmarked) [Example 48, 1-[3-(4-Diphenylmethylpiperazine-1-yl)-2-hydroxypropoxy]isoquinoline] | 215 | 798 |  |
| O=[N+]([O-])c1ccc(OCC(O)CN2CCN(C(c3ccccc3)c3ccccc3)CC2)c2cccnc12 (centres unmarked) [Example 26, 5-[3-(4-Diphenylmethylpiperazine-1-yl)-2-hydroxypropoxy]-8-nitroquinoline] | 177 |  |  |
| CSc1ccc2c(OCC(O)CN3CCN(C4c5ccccc5CCc5ccccc54)CC3)cccc2n1 (centres unmarked) [Example 64, 2-Methylthio-5-[3-(4-(dibenzosuberane-5-yl)piperazine-1-yl)-2-hydroxypropoxy]quinoline] | 425 | 900 |  |
| CN(CCC=C1c2ccccc2CCc2ccccc21)CC(O)COc1cccc2ncccc12 (centres unmarked) [Example 68, 5-(3[N-{3-dibenzosuberane-5-ylidene)propy}-N-methylamino-2-hydroxypropoxy)quinoline] | 671 |  |  |
| CN(CCN(C)C1c2ccccc2CCc2ccccc21)CC(O)COc1cccc2ncccc12 (centres unmarked) [Example 63] | 773 |  |  |
| Cc1cc(C(F)(F)F)nc2cccc(OCC(O)CN3CCN(C(c4ccccc4)c4ccccc4)CC3)c12 (centres unmarked) [Example 56, 2-Trifluoromethyl-4-methyl-5-[3-(4-diphenylmethylpiperazine-1-yl)-2-hydroxypropoxy]quinoline] | 321 | 735 |  |
| OC(COc1ccnc2ccccc12)CN1CCN(C(c2ccccc2)c2ccccc2)CC1 (centres unmarked) [Example 46, 4-[3-(4-Diphenylmethylpiperazine-1-yl)-2-hydroxypropoxy]quinoline] | 142 | 987 |  |
| OC(COc1cccc2cccnc12)CN1CCN(C(c2ccccc2)c2ccccc2)CC1 (centres unmarked) [Example 49, 8-[3-(4-Diphenylmethylpiperazine-1-yl)-2-hydroxypropoxy]-quinoline] | 213 | 612 |  |
| CN(CC(O)CN1CCN(C(c2ccccc2)c2ccccc2)CC1)c1cccc2ncccc12 (centres unmarked) [Example 30, N-[3-(4-Diphenylmethylpiperazine-1-yl)-2-hydroxypropyl]-N-methyl-5-quinolineamine] | 597 |  |  |
| OC(CSc1cccc2ncccc12)CN1CCN(C(c2ccccc2)c2ccccc2)CC1 (centres unmarked) [Example 74, 5-[3-(4-Diphenylmethylpiperazine-1-yl)-2-hydroxypropylthio]qunoline] |  |  | 626 |
| OC(COc1cccc2nccnc12)CN1CCN(C(c2ccccc2)c2ccccc2)CC1 (centres unmarked) [Example 50, 5-[3-(4-Diphenylmethylpiperazine-1-yl)-2-hydroxypropoxy]quinoxaline] | 559 | 668 |  |
